Reference: patent US10345292B2, “Mammalian cell lines expressing functional nematode acetylcholine receptors and use thereof for high-throughput screening assays” (priority 2014, dated 2019)
Like-named read-outs stand apart in the source and are kept apart here.

Legend:
[1] = target: T1, Hco ACR-16/hRIC3 cell line (Haemonchus contortus, UniProt A9Y2C3); test: Ca2+ measurement in 384-well plate format on FDSS6000 (Fluo-4AM); format: cell-based
T1 sequence (A9Y2C3 1-494): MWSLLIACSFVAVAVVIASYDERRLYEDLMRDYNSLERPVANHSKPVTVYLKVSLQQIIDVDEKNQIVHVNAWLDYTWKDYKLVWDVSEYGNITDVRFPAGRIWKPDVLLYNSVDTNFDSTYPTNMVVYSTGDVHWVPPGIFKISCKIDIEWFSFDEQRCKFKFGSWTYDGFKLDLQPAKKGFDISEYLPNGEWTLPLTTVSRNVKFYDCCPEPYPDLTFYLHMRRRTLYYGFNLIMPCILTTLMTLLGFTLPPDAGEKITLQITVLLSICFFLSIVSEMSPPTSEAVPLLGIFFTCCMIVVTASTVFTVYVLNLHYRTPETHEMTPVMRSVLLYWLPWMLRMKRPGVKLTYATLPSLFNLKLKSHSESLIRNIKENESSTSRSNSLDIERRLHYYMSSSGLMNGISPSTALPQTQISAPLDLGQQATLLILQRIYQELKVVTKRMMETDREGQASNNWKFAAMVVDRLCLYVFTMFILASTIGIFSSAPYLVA
T1 sequence (Q7Z5B4 29-369 partner): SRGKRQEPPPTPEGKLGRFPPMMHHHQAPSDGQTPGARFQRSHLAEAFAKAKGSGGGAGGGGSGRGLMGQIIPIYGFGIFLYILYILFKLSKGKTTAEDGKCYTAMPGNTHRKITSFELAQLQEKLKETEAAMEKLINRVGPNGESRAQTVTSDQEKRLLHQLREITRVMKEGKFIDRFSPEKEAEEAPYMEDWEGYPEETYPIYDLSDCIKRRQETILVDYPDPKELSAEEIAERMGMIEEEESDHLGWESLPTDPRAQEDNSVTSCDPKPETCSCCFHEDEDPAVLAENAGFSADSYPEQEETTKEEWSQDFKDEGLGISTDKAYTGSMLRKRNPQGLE

[2] = system: Dim ACR-16/Dim RIC3 stable cell line; test: as above; format: cell-based, Dirofilaria immitis
[3] = target: T2, Hco ACR-16/Hco RIC3 stable cell line (Haemonchus contortus, UniProt A9Y2C3); test: as above; format: cell-based
T2 sequence (A9Y2C3 1-494): T1 sequence (A9Y2C3 1-494)

[4] = system: Hco ACR-16/hRIC3 stable cell line (Flp-In-293-Hco ACR-16 hRic3); format: cell-based, Haemonchus contortus; set-up: AUC, Mean / AUC, Median: unit not given beside the values

COc1cc(OC)c(NC(=O)Nc2cc(C)on2)cc1Cl [PNU-120956]
EC50 ([1]; four-parameter logistic fit, cell line not named in legend, read-out: XC50 from concentration-response curve (FIG. 8)): 160 nM | EC50 ([2]; allosteric modulator response curve, read-out: EC50 (FIG. 12)): 2400 nM | EC50 ([3]; Revealed by co-application of EC100 orthosteric reference agonist, read-out: EC50 value): 1400 nM

CC(=O)OCC[N+](C)(C)C [Acetylcholine]
EC50 [1]: 480 nM

Clc1ccc(C2CC3CCC2N3)cn1 (stereo not drawn) [Epibatidine]
EC50 [1]: 6 nM | Signal amplitude with 10 μM PNU120596 + 300 nM epibatidine application ([1]; 24 h @ 37° C.): 1503 RFU | Signal amplitude with 10 μM PNU120596 + 300 nM epibatidine application ([1]; 24 h @ 37° C. + 24 h @ 30° C.): 2160 RFU | Signal amplitude with 10 μM PNU120596 + 300 nM epibatidine application [2]: 450 RFU | EC50 ([2]; read-out: EC50 (FIG. 10, FIG. 11)): 10 nM | EC50 ([2]; read-out: EC50 value): 5 nM | AUC, Mean [4]: 271.25 | AUC, Median [4]: 253.67 | Ratio, Mean [4]: 2.51 | Ratio, Median [4]: 2.15 | Rmax, Mean [4]: 2.62 | Rmax, Median [4]: 2.34 | Rmin, Mean [4]: 1.02 | Rmin, Median [4]: 1.04 | EC50 [3]: 5 nM | Signal amplitude with 10 μM PNU120596 + 300 nM epibatidine application ([3]; 24 h @ 37° C.): 680 RFU | Signal amplitude with 10 μM PNU120596 + 300 nM epibatidine application ([3]; 24 h @ 37° C. + 24 h @ 30° C.): 1601 RFU

CN1CCCC1c1cccnc1 (stereo not drawn) [Nicotine]
EC50 [1]: 200 nM | EC50 ([2]; read-out: EC50 (FIG. 10, FIG. 11), orthosteric reference agonist, concentration response curve): 350 nM | EC50 ([2]; read-out: EC50 value, Revealed by co-application of PNU-120956): 400 nM
